{"source": "patent US10532028B2", "about": "“Method to improve characteristics of spray dried powders and granulated materials, and the products thereby produced” (ISP INVESTMENTS LLC, priority 2005, dated 2020)", "key": {"[1]": {"assay": "Crystallinity by (modulated) differential scanning calorimetry", "assay_type": "physicochemical", "conditions": "MDSC, heat-only conditions, aluminum hermetic pans", "procedure": "• 1. 1 part Carbamazepine (CBZ) was spray dried with 1 part polyvinylpyrrolidone (PVP) (Plasdone® K-29/32, International Specialty Products) and 1 part polyvinylpyrrolidone-co-vinyl acetate (PVP-VA) (Plasdone® S-630, International Specialty Products) from solvent and solvent/non-solvent solutions at 10% solids by weight. Solvent was dichloromethane (20%), non-solvent was acetone (80%). • 2. Spray drying was conducted on an SD-Micro® (Niro, Inc.) spray dryer under identical experimental conditions other than solvent composition. • 3. Results: • a. […] CBZ from solvent/non-solvent solution • 1) Particle morphology: spherical as shown in FIG. 2B. • 2) Particle size (from optical microscopy): 3 μm-5 μm • 3) Residual solvent immediately after spray drying: 2.0% • 4) Bulk density: 0.057 g/mL • 5) Density after 1250 taps: 0.18 g/mL • 6) Spherical morphology was unexpected, based on previous examples, expected particles to be dimpled, raisin-like, or folded.\n• The two solutions were spray dried under identical conditions on an SD-Micro® (Niro, Inc.) spray dryer to yield spray dried powders. • 2. The two compositions were analyzed for EFV crystallinity using differential scanning calorimetry. Both powders were amorphous, as indicated by the absence of an EFV melt endotherm (FIG. 5). • 3. […]"}, "[2]": {"assay": "CoQ10 USP dissolution, apparatus II (paddles)", "assay_type": "physicochemical", "conditions": "37° C.", "excerpt": "• 1. Coenzyme Q10 (CoQ10) was spray dried with polyvinylpyrrolidone (PVP) (Plasdone® K-29/32, International Specialty Products) in the ratio 1 CoQ10:3 PVP at 20% total solids. Two spray dried powders were produced, one from 100% dichloromethane (DCM) and the other from a blend of 80% DCM, 20% acetone. CoQ10 is soluble in both DCM and acetone, while PVP is only soluble in DCM. All other spray drying conditions remained the same. • 2. Sample analysis included USP dissolution using apparatus II (paddles). All samples were hand-filled into size 1 gelatin capsules. The bath temperature was 37° C. with a paddle speed of 50 rpm for the first 60 minutes and then 200 rpm for an additional 15 minutes. The dissolution media contained 2% Cremophor® EL (BASF Corp.), and 4% Acconon® MC8 (Abitec Corp.). […] It is surprising that the time for 50% CoQ10 dissolution (t50%) was shortened from 18 minutes (100% solvent) to 5 minutes (solvent/non-solvent blend). Similarly, the time for 80% CoQ10 dissolution (t80%) was shortened from 68 minutes to 12 minutes by the switch from 100% solvent to the solvent/non-solvent blend. • 4. […] Other advantages of the solvent/non-solvent blend approach include lower residual solvent content and higher density."}, "[3]": {"conditions": "Table 1, 75 minutes test, 2% Cremophor EL + 4% Acconon MC8"}}}
{"smiles": "COC1=C(OC)C(=O)C(C/C=C(\\C)CC/C=C(\\C)CC/C=C(\\C)CC/C=C(\\C)CC/C=C(\\C)CC/C=C(\\C)CC/C=C(\\C)CC/C=C(\\C)CC/C=C(\\C)CCC=C(C)C)=C(C)C1=O", "note": "[CoQ10 (as received), Coenzyme Q10]", "values": [{"measurement": "crystallinity", "setting": "[1]", "value": 100, "unit": "%"}, {"measurement": "max. CoQ10 release", "setting": "[2]; 50 rpm for 60 min then 200 rpm for 15 min, 2% Cremophor EL + 4% Acconon MC8, size 1 gelatin capsules", "value": 4.3, "unit": "%"}, {"measurement": "T80% (time for 80% CoQ10 dissolution)", "setting": "[2]; [3]", "value": "not attained"}, {"measurement": "t50% (time for 50% CoQ10 dissolution)", "setting": "[2]; [3]", "value": "not attained"}]}
